Measured values from patent publication US9234006B2, “Compounds” (Novacta Biosystems Limited, priority 2011, dated 2016).
*1 amine or outer side, *2 acyl side, *3 side chain or, on linkers, in order; H or OH if unused. Where a SMILES comes first, the peptide text is derived from it. Bridges are numbered along the chain shown (N, C = ends). [ ]: non-standard residue; d: D form. The star is where a group is joined. ξ: configuration not given here. Achc(trans-4) = O=C([C@H]1CC[C@H](N[*:1])CC1)[*:2]; GABA(4S-Me) = C[C@@H](CCC(=O)[*:2])N[*:1]; Octanoyl(3-OH) = CCCCCC(O)CC(=O)*; NMeGABA = CN(CCCC(=O)[*:2])[*:1]; X8 = O=C([C@H]1CC[C@H](O)CC1)*; Thr(3ξ) = CC(O)[C@H](N)C(=O)O; X10 = O=C(CC[C@@H]1CCCN1)*; ξAoc(2) = CCCCCCC(N)C(=O)O; NH(2-ClPh) = Clc1ccccc1N*; Dab = NCC[C@H](N)C(=O)O; X12 = O=C(CCCN1CCOCC1)*; X11 = CC(C)(N)CCC(=O)*; X7 = NC1CCC(C(=O)*)CC1; X1 = CCCCCCC(O)C(=O)*; CO = O=C([*:1])[*:2]; Glycolyl = O=C(CO)*; GABA = NCCCC(=O)O; X9 = O=C(CCCCCO)*

Key:
Test in all cases: MIC susceptibility testing, broth microdilution in CaMHB
E. coli ATCC25922 = type: cell-based, Escherichia coli; settings: Table 4A, different batches of cation-adjusted Muller-Hinton broth
Protocol: (§1) To evaluate the potency and spectrum of the compounds, susceptibility testing was performed against four strains of each of the four Gram negative pathogens, Escherichia coli, Pseudomonas aeruginosa, Klebsiella pneumoniae and Acinetobacter baumannii.
(§2) The day before testing, 3 to 4 colonies were picked from fresh Mueller-Hinton Agar (MHA) plate and transferred into 10 mL of Cation adjusted MHB (CaMHB). Cultures were incubated at 37° C. 250 rpm for 18-20 hours before being diluted 100-fold in fresh CaMHB. The subcultures were grown further until the OD600 reached 0.2-0.3 corresponding to […]. The actively growing cultures were diluted 100-fold in fresh medium and used for the inoculum.
(§3) The assays were performed in duplicate.
(§4) Data was obtained under similar conditions to Table 4 except that different batches of cation-adjusted Muller-Hinton broth were used. The MIC values for these compounds are compared with those values obtained for Polymyxin B, Colistin Sulphate, CB-182,804 and NAB739 (as the TFA salt). CB-182,804 is a polymyxin decapeptide derivative with an aryl urea substituent at the N-terminus, which has been claimed to have lower toxicity than Polymyxin B (compound 5 in WO 2010/075416. See page 37). NAB739 has been described previously by Vaara et al.

A. baumannii ATCC19606 = type: cell-based, Acinetobacter baumannii; settings: Table 4A, different batches of cation-adjusted Muller-Hinton broth
Protocol: as §1, §2, §3, §4

P. aeruginosa ATCC27853 = type: cell-based, Pseudomonas aeruginosa; settings: Table 4A, different batches of cation-adjusted Muller-Hinton broth
Protocol: as §1, §2, §3, §4

K. pneumoniae ATCC 4352 = type: cell-based, Klebsiella pneumoniae; settings: K. pneumoniae ATCC4352; Table 4A, different batches of cation-adjusted Muller-Hinton broth
Protocol: as §1, §2, §3, §4

Row | Structure (SMILES) | MIC (E. coli ATCC25922) | MIC (A. baumannii ATCC19606) | MIC (P. aeruginosa ATCC27853) | MIC (K. pneumoniae ATCC 4352)
1 | CC(C)C[C@@H]1NC(=O)[C@@H](Cc2ccccc2)NC(=O)[C@H](CCN)NC(=O)[C@@H](NC(=O)[C@H](CCN)NC(=O)[C@@H](NC(=O)[C@H](CCN)NC(=O)Nc2ccccc2Cl)[C@@H](C)O)CCNC(=O)[C@H]([C@@H](C)O)NC(=O)[C@H](CCN)NC(=O)[C@H](CCN)NC1=O [CB-182,804, reference compound] ({NH(2-ClPh)-CO}-[Dab]T[Dab][Dab][Dab][dF]L[Dab][Dab]T; lactam 4-C; N-terminus assumed) | 2 micrograms/mL | 0.5 micrograms/mL | 1 micrograms/mL | 
2 | CCCCCC(O)CC(=O)N[C@H](C(=O)N[C@@H](CCN)C(=O)N[C@H]1CCNC(=O)[C@H](C(C)O)NC(=O)[C@H](CCN)NC(=O)[C@H](CCN)NC(=O)[C@H](CC(C)C)NC(=O)[C@@H](Cc2ccccc2)NC(=O)[C@H](CCN)NC1=O)C(C)O (stereo partly drawn) [Example 17, 3-(R,S)-3-Hydroxyoctanoyl polymyxin B nonapeptide] ({Octanoyl(3-OH)}-[Thr(3ξ)][Dab][Dab][Dab][dF]L[Dab][Dab][Thr(3ξ)]; lactam 3-C) | 8 micrograms/mL | 4 micrograms/mL | 2 micrograms/mL | 8 micrograms/mL
3 | CC(C)C[C@@H]1NC(=O)[C@@H](Cc2ccccc2)NC(=O)[C@H](CCN)NC(=O)[C@@H](NC(=O)[C@H](CCN)NC(=O)[C@@H](NC(=O)CCCN2CCOCC2)C(C)O)CCNC(=O)[C@H](C(C)O)NC(=O)[C@H](CCN)NC(=O)[C@H](CCN)NC1=O (stereo partly shown) [Example 20, 4-Morpholinylbutanoyl polymyxin B nonapeptide] (X12-[Thr(3ξ)][Dab][Dab][Dab][dF]L[Dab][Dab][Thr(3ξ)]; lactam 3-C) | 4 micrograms/mL | >32 micrograms/mL | 1 micrograms/mL | >32 micrograms/mL
4 | CC(C)C[C@@H]1NC(=O)[C@@H](CC(C)C)NC(=O)[C@H](CCN)NC(=O)[C@@H](NC(=O)[C@H](CCN)NC(=O)[C@@H](NC(=O)CCCN)C(C)O)CCNC(=O)[C@H](C(C)O)NC(=O)[C@H](CCN)NC(=O)[C@H](CCN)NC1=O (stereo partly drawn) [Example 25, 4-aminobutanoyl polymyxin E nonapeptide] (H-[GABA][Thr(3ξ)][Dab][Dab][Dab][dL]L[Dab][Dab][Thr(3ξ)]; lactam 4-C) | 8 micrograms/mL | 16 micrograms/mL | 4 micrograms/mL | 4 micrograms/mL
5 | CCCCCCC(O)C(=O)N[C@H](C(=O)N[C@@H](CCN)C(=O)N[C@H]1CCNC(=O)[C@H](C(C)O)NC(=O)[C@H](CCN)NC(=O)[C@H](CCN)NC(=O)[C@H](CC(C)C)NC(=O)[C@@H](CC(C)C)NC(=O)[C@H](CCN)NC1=O)C(C)O (stereo partly drawn) [Example 26, 2-(R,S)-2-Hydroxyoctanoyl polymyxin E nonapeptide] (X1-[Thr(3ξ)][Dab][Dab][Dab][dL]L[Dab][Dab][Thr(3ξ)]; lactam 3-C) | 8 micrograms/mL | 16 micrograms/mL | 4 micrograms/mL | 8 micrograms/mL
6 | CC(C)C[C@@H]1NC(=O)[C@@H](Cc2ccccc2)NC(=O)[C@H](CCN)NC(=O)[C@@H](NC(=O)[C@H](CCN)NC(=O)[C@@H](NC(=O)CCC(C)(C)N)C(C)O)CCNC(=O)[C@H](C(C)O)NC(=O)[C@H](CCN)NC(=O)[C@H](CCN)NC1=O (stereo partly shown) [Example 28, 4-Amino-4-methyl pentanoyl polymyxin B nonapeptide] (X11-[Thr(3ξ)][Dab][Dab][Dab][dF]L[Dab][Dab][Thr(3ξ)]; lactam 3-C) | 4 micrograms/mL | 4 micrograms/mL | <0.06 micrograms/mL | 0.25 micrograms/mL
7 | CCCCCCC(N)C(=O)N[C@H](C(=O)N[C@@H](CCN)C(=O)N[C@H]1CCNC(=O)[C@H](C(C)O)NC(=O)[C@H](CCN)NC(=O)[C@H](CCN)NC(=O)[C@H](CC(C)C)NC(=O)[C@@H](Cc2ccccc2)NC(=O)[C@H](CCN)NC1=O)C(C)O (stereo partly drawn) [Example 35, 2-(R,S)-2-Amino octanoyl polymyxin B nonapeptide] (H-[ξAoc(2)][Thr(3ξ)][Dab][Dab][Dab][dF]L[Dab][Dab][Thr(3ξ)]; lactam 4-C) |  | 2 micrograms/mL | 0.25 micrograms/mL | 1 micrograms/mL

Results, then the compound that gave them:

Row | MIC (E. coli ATCC25922) | MIC (A. baumannii ATCC19606) | MIC (P. aeruginosa ATCC27853) | MIC (K. pneumoniae ATCC 4352) | Structure (SMILES)
8 | 32 micrograms/mL | 32 micrograms/mL | 0.25 micrograms/mL | 8 micrograms/mL | CC(C)C[C@@H]1NC(=O)[C@@H](Cc2ccccc2)NC(=O)[C@H](CCN)NC(=O)[C@@H](NC(=O)[C@H](CCN)NC(=O)[C@@H](NC(=O)CO)C(C)O)CCNC(=O)[C@H](C(C)O)NC(=O)[C@H](CCN)NC(=O)[C@H](CCN)NC1=O (stereo partly shown) [Example 16, Hydroxyacetyl polymyxin B nonapeptide] (Glycolyl-[Thr(3ξ)][Dab][Dab][Dab][dF]L[Dab][Dab][Thr(3ξ)]; lactam 3-C)
9 | 32 micrograms/mL | >32 micrograms/mL | 1 micrograms/mL | 32 micrograms/mL | CC(C)C[C@@H]1NC(=O)[C@@H](Cc2ccccc2)NC(=O)[C@H](CCN)NC(=O)[C@@H](NC(=O)[C@H](CCN)NC(=O)[C@@H](NC(=O)CCCCCO)C(C)O)CCNC(=O)[C@H](C(C)O)NC(=O)[C@H](CCN)NC(=O)[C@H](CCN)NC1=O (stereo partly shown) [Example 21, 6-Hydroxyhexanoyl polymyxin B nonapeptide] (X9-[Thr(3ξ)][Dab][Dab][Dab][dF]L[Dab][Dab][Thr(3ξ)]; lactam 3-C)
10 | 0.5 micrograms/mL | 8 micrograms/mL | 0.25 micrograms/mL | 0.5 micrograms/mL | CNCCCC(=O)N[C@H](C(=O)N[C@@H](CCN)C(=O)N[C@H]1CCNC(=O)[C@H](C(C)O)NC(=O)[C@H](CCN)NC(=O)[C@H](CCN)NC(=O)[C@H](CC(C)C)NC(=O)[C@@H](Cc2ccccc2)NC(=O)[C@H](CCN)NC1=O)C(C)O (stereo partly shown) [Example 23, 4-(N-methylamino)-butanoyl polymyxin B nonapeptide] (NMeGABA-[Thr(3ξ)][Dab][Dab][Dab][dF]L[Dab][Dab][Thr(3ξ)]; lactam 3-C)
11 | 2 micrograms/mL | 2 micrograms/mL | 0.125 micrograms/mL | 0.125 micrograms/mL | CC(C)C[C@@H]1NC(=O)[C@@H](Cc2ccccc2)NC(=O)[C@H](CCN)NC(=O)[C@@H](NC(=O)[C@H](CCN)NC(=O)[C@@H](NC(=O)[C@H]2CC[C@H](N)CC2)C(C)O)CCNC(=O)[C@H](C(C)O)NC(=O)[C@H](CCN)NC(=O)[C@H](CCN)NC1=O (stereo partly drawn) [Example 24, trans-4-aminocyclohexanecarbonyl polymyxin B nonapeptide] ({Achc(trans-4)}-[Thr(3ξ)][Dab][Dab][Dab][dF]L[Dab][Dab][Thr(3ξ)]; lactam 3-C)
12 | 2 micrograms/mL | 0.5 micrograms/mL | 0.125 micrograms/mL | 0.125 micrograms/mL | CC(C)C[C@@H]1NC(=O)[C@@H](Cc2ccccc2)NC(=O)[C@H](CCN)NC(=O)[C@@H](NC(=O)[C@H](CCN)NC(=O)[C@@H](NC(=O)C2CCC(N)CC2)C(C)O)CCNC(=O)[C@H](C(C)O)NC(=O)[C@H](CCN)NC(=O)[C@H](CCN)NC1=O (stereo partly drawn) [Example 27, cis-4-aminocyclohexane carbonyl polymyxin B nonapeptide] (X7-[Thr(3ξ)][Dab][Dab][Dab][dF]L[Dab][Dab][Thr(3ξ)]; lactam 3-C)
13 | 16 micrograms/mL | 8 micrograms/mL | 0.125 micrograms/mL | 1 micrograms/mL | CC(C)C[C@@H]1NC(=O)[C@@H](Cc2ccccc2)NC(=O)[C@H](CCN)NC(=O)[C@@H](NC(=O)[C@H](CCN)NC(=O)[C@@H](NC(=O)CC[C@@H]2CCCN2)C(C)O)CCNC(=O)[C@H](C(C)O)NC(=O)[C@H](CCN)NC(=O)[C@H](CCN)NC1=O (stereo partly drawn) [Example 30, 3-(S)-(1-pyrrolidin-2-yl)-propionyl polymyxin B nonapeptide] (X10-[Thr(3ξ)][Dab][Dab][Dab][dF]L[Dab][Dab][Thr(3ξ)]; lactam 3-C)
14 | >32 micrograms/mL | 8 micrograms/mL | 0.25 micrograms/mL | 0.5 micrograms/mL | CC(C)C[C@@H]1NC(=O)[C@@H](Cc2ccccc2)NC(=O)[C@H](CCN)NC(=O)[C@@H](NC(=O)[C@H](CCN)NC(=O)[C@@H](NC(=O)CC[C@H](C)N)C(C)O)CCNC(=O)[C@H](C(C)O)NC(=O)[C@H](CCN)NC(=O)[C@H](CCN)NC1=O (stereo partly drawn) [Example 31, 4-(S)-aminopentanoyl polymyxin B nonapeptide] ({GABA(4S-Me)}-[Thr(3ξ)][Dab][Dab][Dab][dF]L[Dab][Dab][Thr(3ξ)]; lactam 3-C)
15 | 8 micrograms/mL | 16 micrograms/mL | 0.125 micrograms/mL | 4 micrograms/mL | CC(C)C[C@@H]1NC(=O)[C@@H](Cc2ccccc2)NC(=O)[C@H](CCN)NC(=O)[C@@H](NC(=O)[C@H](CCN)NC(=O)[C@@H](NC(=O)[C@H]2CC[C@H](O)CC2)C(C)O)CCNC(=O)[C@H](C(C)O)NC(=O)[C@H](CCN)NC(=O)[C@H](CCN)NC1=O (stereo partly drawn) [Example 32, trans-4-hydroxycyclohexanecarbonyl polymyxin B nonapeptide] (X8-[Thr(3ξ)][Dab][Dab][Dab][dF]L[Dab][Dab][Thr(3ξ)]; lactam 3-C)
